A word on the viability: it is a read-out of living cells in per cent, often relative to untreated cells.

These results are taken from PMC4502315, “High Potency of a Novel Resveratrol Derivative, 3,3′,4,4′-Tetrahydroxy-trans-stilbene, against Ovarian Cancer Is Associated with an Oxidative Stress-Mediated Imbalance between DNA Damage Accumulation and Repair” (Oxidative Medicine and Cellular Longevity, 2015).

Holding throughout (type): cell-based, human
Data set [1] in a line: MTT viability assay, HOSE cells. Conditions: human, percentage of control cells. As for the experimental part: Cell viability was assessed with the MTT test and with lactate dehydrogenase (LDH) release assay. As per the MTT method, normal and cancer cells were seeded into 96-well plates at high density and allowed to attach overnight. Then they were incubated in a medium containing 1.25 mg/mL of the MTT salt [3-(4,5-dimethylthiazol-2-yl)-2,5-diphenyltetrazolium bromide] for 24 h at 37°C. The generated formazan was solubilized with 20% sodium dodecyl sulphate and 50% N,N-dimethylformamide. Absorbance of the converted dye was recorded at 595 nm with a reference wavelength of 690 nm.
In order to examine the effect of 3,3′,4,4′-THS on the viability of ovarian cancer cells and to compare its activity with RVT, subconfluent cultures of A2780, OVCAR-3, and SKOV-3 cells were subjected to a wide range of stilbene concentrations (0–500 μM) for 24 h; then MTT and LDH release assays were performed.

Data set [2] can be described thus: LDH release assay, HPMCs. Particulars: human, percentage of control cells.
For data set [3], the system named is DNA glycosylase I (hOgg1). As to the kind of experiment: DNA glycosylase I (hOgg1) mRNA expression (RT-PCR), ovarian cancer cells. Conditions: all three cancer cell lines; after preincubation with stilbene, 24-h recovery. On the procedure:
Oxidative DNA damage was assessed by measuring the 8-OH-dG concentration with a competitive immunoassay (Cell Biolabs Inc.), as per manufacturer's instructions. The efficiency of 8-OH-dG repair was estimated after cell recovery for 24 h in standard growth medium. In order to examine the activity of DNA glycosylase I, reverse transcription PCR was performed. RNA extraction was carried out using the RNA Bee (Tel-Test, Friendswood, Texas, USA) and purified according to the manufacturer's protocol. One microgram of RNA was reverse transcribed into cDNA with random hexamer primers, and cDNA was subjected to PCR. The profile of the replication cycles was denaturation at 94°C for 50 s, annealing at 58°C for 50 s, and polymerization at 72°C for 1 min. In each reaction, the expression of glyceraldehyde-3-phosphate dehydrogenase (GAPDH) served as the internal control. The primers used for PCR were as follows: hOGG1 forward, 5′-[…]-3′; hOGG1 reverse, 5′-TAGCCCGCCCTGTTCTTC-3′ designed to amplify a 551-bp region; GAPDH forward, 5′-CCATGGAGAAGGCTGGGG-3′; and GAPDH reverse 5′-[…]-3′ designed to amplify a 194-bp region (total number of cycles: 28). The PCR products were separated on 3% agarose gels stained with ethidium bromide and then visualized.

Data set [4] is described as follows: LDH release assay, HOSE cells. Conditions: human, percentage of control cells.

Regarding `Oc1ccc(/C=C/c2ccc(O)c(O)c2)cc1O` [3,3′,4,4′-THS, 3,3′,4,4′-tetrahydroxy-trans-stilbene], the figures for the viability at 24 h, 10 µM in data set [1] (10 μM), in data set [2] (10 μM) and in data set [4] (10 μM) were 105 ± 2%, 101 ± 2% and 101 ± 2%, respectively. Further, the viability at 24 h, 50 µM in data set [1] (50 μM), in data set [2] (50 μM) and in data set [4] (50 μM) was 100 ± 4% in each case. For the same compound, the viability at 24 h, 100 µM in data set [1] (100 μM) worked out at 107 ± 2%; in data set [2] (100 μM), 102 ± 2%; in data set [4] (100 μM), 102 ± 2%. For the same compound, in data set [3], the “hOgg1 mRNA expression during recovery, in words” value was “remarkably lower as compared to values characterizing cells subjected to RVT”.
